Data from US8519137B2, “Heteroaryl amides useful as inhibitors of voltage-gated sodium channels” (Vertex Pharmaceuticals Incorporated, priority 2007, dated 2013).
Like-named read-outs stand apart in the source and are kept apart here.

Columns and labels:
NaV 1.7 channel = NaV 1.7 channel (Homo sapiens, UniProt Q15858); assay: Optical membrane potential assay, NaV 1.7 inhibition; format: cell-based; conditions: activity against NaV 1.7 channel
Protocol: (§1) Compounds of the invention are useful as antagonists of voltage-gated sodium ion channels. Antagonist properties of test compounds were assessed as follows. Cells expressing the NaV of interest were placed into microtiter plates. After an incubation period, the cells were stained with fluorescent dyes sensitive to the transmembrane potential. The test compounds were added to the microtiter plate. The cells were stimulated with either a chemical or electrical means to evoke a NaV dependent membrane potential change from unblocked channels, which was detected and measured with trans-membrane potential-sensitive dyes. Antagonists were detected as a decreased membrane potential response to the stimulus. The optical membrane potential assay utilized voltage-sensitive FRET sensors described by Gonzalez and Tsien (See, Gonzalez, J. E. and R. Y. Tsien (1995) “Voltage sensing by fluorescence resonance energy transfer in single cells” Biophys J 69(4): 1272-80, and Gonzalez, J. E. and R. Y. Tsien (1997) “Improved indicators of cell membrane potential that use fluorescence resonance energy transfer” Chem Biol 4(4): 269-77) in combination with instrumentation for measuring fluorescence changes such as the Voltage/Ion Probe Reader (VIPR®) (See, Gonzalez, J. E., K. Oades, et al. (1999) “Cell-based assays and instrumentation for screening ion-channel targets” Drug Discov Today 4(9): 431-439).
(§2) C) VIPR® Optical Membrane Potential Assay Method with Electrical Stimulation
(§3) The following is an example of how NaV1.3 inhibition activity is measured using the optical membrane potential method#2. Other subtypes are performed in an analogous mode in a cell line expressing the NaV of interest.
(§4) The electrical stimulation instrument and methods of use are described in ION Channel Assay Methods PCT/US01/21652, herein incorporated by reference. The instrument comprises a microtiter plate handler, an optical system for exciting the coumarin dye while simultaneously recording the coumarin and oxonol emissions, a waveform generator, a current-or voltage-controlled amplifier, and a device for inserting electrodes in well. Under integrated computer control, this instrument passes user-programmed electrical stimulus protocols to cells within the wells of the microtiter plate.
(§5) Assay Protocol • 1 Insert or use electrodes into each well to be assayed. • 2. Use the current-controlled amplifier to deliver stimulation wave pulses for 3 s. Two seconds of pre-stimulus recording are performed to obtain the un-stimulated intensities. Five seconds of post-stimulation recording are performed to examine the relaxation to the resting state.
(§6) Data are analyzed and reported as normalized ratios of background-subtracted emission intensities measured in the 460 nm and 580 nm channels. Background intensities are then subtracted from each assay channel. Background intensities are obtained by measuring the emission intensities during the same time periods from identically treated assay wells in which there are no cells. The response as a function of time is then reported as the ratios obtained using the following formula: […]
(§7) The data is further reduced by calculating the initial (Ri) and final (Rf) ratios. These are the average ratio values during part or all of the pre-stimulation period, and during sample points during the stimulation period. The response to the stimulus , ρ=Rf/Ri is then calculated.
(§8) Control responses are obtained by performing assays in the presence of a compound with the desired properties (positive control) and in the absence of pharmacological agents (negative control). Responses to the negative (N) and positive (P) controls are calculated as above. The activity A of the assay well relative to positive and negative controls is defined as: […]

NaV1.3 [1] = target: T1, NaV1.3 (Homo sapiens, UniProt Q9NY46); assay: VIPR optical membrane potential assay, NaV 1.3 inhibition; format: cell-based; set-up: expressed in transfected cells; host or cells: HEK293; conditions: activity against NaV 1.3 channel
Protocol: as §1, §2, §3
Target sequence in this assay (Q9NY46 whole entry): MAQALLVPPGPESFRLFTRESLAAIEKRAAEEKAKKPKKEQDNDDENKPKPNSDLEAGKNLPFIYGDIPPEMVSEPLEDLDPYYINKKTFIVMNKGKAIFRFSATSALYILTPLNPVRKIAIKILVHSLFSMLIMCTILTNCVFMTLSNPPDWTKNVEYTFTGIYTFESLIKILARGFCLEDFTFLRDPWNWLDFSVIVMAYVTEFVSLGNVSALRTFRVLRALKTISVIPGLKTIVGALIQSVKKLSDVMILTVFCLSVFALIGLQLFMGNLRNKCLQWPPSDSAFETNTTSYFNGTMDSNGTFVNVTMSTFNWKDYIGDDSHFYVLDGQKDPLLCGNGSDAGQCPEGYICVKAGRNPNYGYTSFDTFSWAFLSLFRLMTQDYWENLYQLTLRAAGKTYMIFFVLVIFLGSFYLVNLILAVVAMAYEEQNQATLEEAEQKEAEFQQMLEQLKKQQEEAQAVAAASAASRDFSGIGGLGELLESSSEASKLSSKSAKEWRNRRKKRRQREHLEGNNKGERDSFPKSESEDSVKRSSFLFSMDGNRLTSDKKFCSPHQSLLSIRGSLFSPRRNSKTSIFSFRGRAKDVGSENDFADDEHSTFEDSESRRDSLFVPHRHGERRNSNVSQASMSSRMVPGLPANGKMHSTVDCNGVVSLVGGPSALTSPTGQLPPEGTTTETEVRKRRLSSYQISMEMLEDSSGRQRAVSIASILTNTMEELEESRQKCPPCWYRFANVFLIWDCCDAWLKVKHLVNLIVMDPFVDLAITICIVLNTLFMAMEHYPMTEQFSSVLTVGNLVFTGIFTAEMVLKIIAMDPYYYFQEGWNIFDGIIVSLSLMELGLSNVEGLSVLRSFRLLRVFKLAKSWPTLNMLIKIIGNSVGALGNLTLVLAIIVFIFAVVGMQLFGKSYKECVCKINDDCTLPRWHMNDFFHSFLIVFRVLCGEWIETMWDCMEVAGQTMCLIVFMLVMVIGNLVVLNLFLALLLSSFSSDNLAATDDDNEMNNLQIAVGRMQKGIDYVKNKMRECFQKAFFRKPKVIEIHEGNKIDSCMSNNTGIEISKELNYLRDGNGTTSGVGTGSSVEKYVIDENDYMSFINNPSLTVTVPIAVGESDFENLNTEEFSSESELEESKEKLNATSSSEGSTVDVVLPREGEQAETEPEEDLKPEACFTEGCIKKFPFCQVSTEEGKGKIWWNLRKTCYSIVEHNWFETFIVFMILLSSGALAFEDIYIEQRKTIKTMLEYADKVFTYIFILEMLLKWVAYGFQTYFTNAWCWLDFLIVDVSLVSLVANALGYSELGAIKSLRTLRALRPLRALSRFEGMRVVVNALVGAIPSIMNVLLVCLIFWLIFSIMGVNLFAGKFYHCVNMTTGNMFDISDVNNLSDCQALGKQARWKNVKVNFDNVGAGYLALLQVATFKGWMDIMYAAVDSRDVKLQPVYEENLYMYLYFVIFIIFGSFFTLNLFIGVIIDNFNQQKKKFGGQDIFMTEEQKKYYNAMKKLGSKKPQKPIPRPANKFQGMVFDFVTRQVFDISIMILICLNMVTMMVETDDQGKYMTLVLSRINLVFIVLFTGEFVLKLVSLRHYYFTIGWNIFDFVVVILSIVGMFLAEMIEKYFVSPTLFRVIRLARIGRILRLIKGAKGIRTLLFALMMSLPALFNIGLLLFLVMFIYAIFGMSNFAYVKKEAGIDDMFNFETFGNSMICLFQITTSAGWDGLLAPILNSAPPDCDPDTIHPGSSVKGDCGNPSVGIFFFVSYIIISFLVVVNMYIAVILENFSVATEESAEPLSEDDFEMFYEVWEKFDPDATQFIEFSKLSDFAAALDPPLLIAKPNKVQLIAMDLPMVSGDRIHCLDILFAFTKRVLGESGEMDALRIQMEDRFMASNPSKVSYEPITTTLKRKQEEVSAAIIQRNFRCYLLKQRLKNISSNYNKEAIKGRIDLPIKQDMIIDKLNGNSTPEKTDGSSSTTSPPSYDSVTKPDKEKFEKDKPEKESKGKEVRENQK
HEK293 cells stably expressing NaV1.3 are plated into 96-well microtiter plates. After an appropriate incubation period, the cells are stained with the voltage sensitive dyes CC2-DMPE/DiSBAC2(3) as follows.
Reagents: • 100 mg/mL Pluronic F-127 (Sigma #P2443), in dry DMSO • 10 mM DiSBAC2(3) (Aurora #00-100-010) in dry DMSO • 10 mM CC2-DMPE (Aurora #00-100-008) in dry DMSO • 200 mM ABSC1 in H2O • Hank's Balanced Salt Solution (Hyclone #SH30268.02) supplemented with 10 mM HEPES (Gibco #15630-080)
2×CC2-DMPE=20 μM CC2-DMPE: 10 mM CC2-DMPE is vortexed with an equivalent volume of 10% pluronic, followed by vortexing in required amount of HBSS containing 10 mM HEPES. Each cell plate will require 5 mL of 2×CC2-DMPE. 50 μL of 2×CC2-DMPE is to wells containing washed cells, resulting in a 10 μM final staining concentration. The cells are stained for 30 minutes in the dark at RT.
2×DISBAC2(3) with ABSC1=6 μM DISBAC2(3) and 1 mM ABSC1: The required amount of 10 mM DISBAC2(3) is added to a 50 ml conical tube and mixed with 1 μL 10% pluronic for each mL of solution to be made and vortexed together. Then HBSS/HEPES is added to make up 2× solution. Finally, the ABSC1 is added.
The 2× DiSBAC2(3) solution can be used to solvate compound plates. Note that compound plates are made at 2× drug concentration. Wash stained plate again, leaving residual volume of 50 μL. Add 50 uL/well of the 2× DiSBAC2(3) w/ABSC1. Stain for 30 minutes in the dark at RT.
as §4, with “plate. […]” for “plate.”

NaV1.8 [2] = target: T2, NaV1.8 (Homo sapiens, UniProt Q9Y5Y9); assay: Optical membrane potential assay, NaV 1.8 inhibition; format: cell-based; conditions: activity against NaV 1.8 channel
Protocol: as §1, §2, §3, §4, §5, §6, §7, §8

NaV1.6 = NaV1.6 (Homo sapiens, UniProt Q9UQD0); conditions: read-out: TTX IC50; cited from earlier work
NaV1.8 [3] = target: T2, NaV1.8; conditions: read-out: TTX IC50; cited from earlier work
NaV1.2 = NaV1.2 (Homo sapiens, UniProt Q99250); conditions: read-out: TTX IC50; cited from earlier work
NaV1.9 = NaV1.9 (Homo sapiens, UniProt Q9UI33); conditions: read-out: TTX IC50; cited from earlier work
NaV1.1 = NaV1.1 (Homo sapiens, UniProt P35498); conditions: read-out: TTX IC50; cited from earlier work
NaV1.3 [4] = target: T1, NaV1.3; conditions: read-out: TTX IC50; cited from earlier work
Target sequence in this assay (Q9NY46 whole entry, looked up): as the sequence (Q9NY46 whole entry) above

NaV 1.7 channel, sequence (Q15858 whole entry): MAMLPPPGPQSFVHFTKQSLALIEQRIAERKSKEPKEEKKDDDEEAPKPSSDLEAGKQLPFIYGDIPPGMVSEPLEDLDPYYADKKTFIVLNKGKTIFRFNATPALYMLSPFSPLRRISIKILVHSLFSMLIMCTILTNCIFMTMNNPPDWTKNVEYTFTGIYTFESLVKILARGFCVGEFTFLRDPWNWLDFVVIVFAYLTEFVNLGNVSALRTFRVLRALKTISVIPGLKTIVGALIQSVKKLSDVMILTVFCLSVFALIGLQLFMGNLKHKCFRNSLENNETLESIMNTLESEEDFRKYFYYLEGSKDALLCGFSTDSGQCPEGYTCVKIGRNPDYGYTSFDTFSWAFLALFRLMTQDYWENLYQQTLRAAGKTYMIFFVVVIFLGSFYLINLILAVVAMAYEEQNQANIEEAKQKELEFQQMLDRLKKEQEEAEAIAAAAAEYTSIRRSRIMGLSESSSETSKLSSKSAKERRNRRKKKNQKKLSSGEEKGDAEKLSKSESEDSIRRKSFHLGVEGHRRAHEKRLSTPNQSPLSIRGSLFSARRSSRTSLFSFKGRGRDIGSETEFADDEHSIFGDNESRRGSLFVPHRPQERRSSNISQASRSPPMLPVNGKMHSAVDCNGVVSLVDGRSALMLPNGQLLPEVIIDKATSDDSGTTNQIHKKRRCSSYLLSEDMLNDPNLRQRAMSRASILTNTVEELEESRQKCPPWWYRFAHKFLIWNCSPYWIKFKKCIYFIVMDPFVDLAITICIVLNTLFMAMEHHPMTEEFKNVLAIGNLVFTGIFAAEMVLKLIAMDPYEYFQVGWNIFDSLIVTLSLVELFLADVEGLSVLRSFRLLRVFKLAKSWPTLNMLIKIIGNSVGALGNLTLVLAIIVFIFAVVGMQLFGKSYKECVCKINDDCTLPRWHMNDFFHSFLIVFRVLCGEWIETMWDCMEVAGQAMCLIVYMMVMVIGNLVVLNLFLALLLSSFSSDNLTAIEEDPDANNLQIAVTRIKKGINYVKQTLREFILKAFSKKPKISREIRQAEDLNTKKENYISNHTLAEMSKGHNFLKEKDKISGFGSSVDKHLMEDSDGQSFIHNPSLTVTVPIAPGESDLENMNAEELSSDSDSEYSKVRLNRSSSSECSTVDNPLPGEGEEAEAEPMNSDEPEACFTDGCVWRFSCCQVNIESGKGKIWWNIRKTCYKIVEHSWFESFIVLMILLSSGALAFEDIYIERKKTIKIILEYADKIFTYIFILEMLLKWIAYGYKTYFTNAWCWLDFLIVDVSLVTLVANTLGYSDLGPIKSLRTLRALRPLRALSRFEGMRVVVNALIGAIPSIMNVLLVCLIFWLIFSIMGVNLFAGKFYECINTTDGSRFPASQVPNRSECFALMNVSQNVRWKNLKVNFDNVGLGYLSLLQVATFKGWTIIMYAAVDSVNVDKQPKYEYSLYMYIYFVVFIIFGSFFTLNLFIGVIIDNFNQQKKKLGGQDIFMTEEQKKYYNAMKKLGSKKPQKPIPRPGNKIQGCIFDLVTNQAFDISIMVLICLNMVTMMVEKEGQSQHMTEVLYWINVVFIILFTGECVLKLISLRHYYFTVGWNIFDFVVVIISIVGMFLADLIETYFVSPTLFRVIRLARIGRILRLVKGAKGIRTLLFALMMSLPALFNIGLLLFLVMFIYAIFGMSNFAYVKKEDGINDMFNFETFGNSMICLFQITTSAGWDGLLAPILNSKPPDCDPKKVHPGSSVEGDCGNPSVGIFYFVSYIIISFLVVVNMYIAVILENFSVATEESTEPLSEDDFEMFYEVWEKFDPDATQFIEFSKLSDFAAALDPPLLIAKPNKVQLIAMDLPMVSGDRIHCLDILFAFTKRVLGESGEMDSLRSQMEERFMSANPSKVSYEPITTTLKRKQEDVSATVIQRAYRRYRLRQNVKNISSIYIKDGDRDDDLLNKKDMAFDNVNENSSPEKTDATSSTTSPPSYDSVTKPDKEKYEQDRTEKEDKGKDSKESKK

Structure (SMILES): Cc1oc(C(C)(C)C)c(CO)c1C(=O)Nc1cccc(S(N)(=O)=O)c1 [Compound 13]
- IC50 (NaV 1.7 channel): 10 to 20 µM
- IC50 (NaV1.3 [1]): 10 to 20 µM
- IC50 (NaV1.8 [2]): < 2 µM

Structure (SMILES): Cc1oc(C(C)(C)C)c(CN2CCOCC2)c1C(=O)Nc1cccc(S(N)(=O)=O)c1 [Compound 8]
- IC50 (NaV 1.7 channel): 10 to 20 µM
- IC50 (NaV1.3 [1]): > 20 µM
- IC50 (NaV1.8 [2]): > 20 µM

Structure (SMILES): Cc1oc(C(C)(C)C)cc1C(=O)Nc1cccc(S(N)(=O)=O)c1 [Compound 18]
- IC50 (NaV 1.7 channel): 10 to 20 µM
- IC50 (NaV1.3 [1]): 10 to 20 µM
- IC50 (NaV1.8 [2]): < 2 µM

Structure (SMILES): NS(=O)(=O)c1cccc(NC(=O)c2ccc(-c3cccc(C(F)(F)F)c3)o2)c1 [Compound 29]
- IC50 (NaV 1.7 channel): 10 to 20 µM
- IC50 (NaV1.3 [1]): 2 to 10 µM

Structure (SMILES): Cc1oc(CC(C)C)c(CN2CCCCC2)c1C(=O)Nc1cccc(S(N)(=O)=O)c1 [Compound 12]
- IC50 (NaV 1.7 channel): 2 to 10 µM
- IC50 (NaV1.3 [1]): 10 to 20 µM
- IC50 (NaV1.8 [2]): 2 to 10 µM

Structure (SMILES): CC(C)(C)c1ccc(C(=O)Nc2cccc(S(N)(=O)=O)c2)cn1 [Compound 22, 6-tert-Butyl-N-(3-(aminosulfonyl)phenyl)pyridine-3-carboxamide]
- IC50 (NaV 1.7 channel): > 20 µM
- IC50 (NaV1.3 [1]): > 20 µM
- IC50 (NaV1.8 [2]): 10 to 20 µM

Structure (SMILES): NS(=O)(=O)c1cccc(NC(=O)c2cc(-c3ccccc3)on2)c1 [Compound 30]
- IC50 (NaV 1.7 channel): 10 to 20 µM

Structure (SMILES): CC(C)(C)c1nnc(C(=O)Nc2cccc(S(N)(=O)=O)c2)s1 [Compound 23, 5-tert-Butyl-N-(3-sulfamoylphenyl)-1,3,4-thiadiazole-2-carboxamide]
- IC50 (NaV 1.7 channel): > 20 µM
- IC50 (NaV1.3 [1]): > 20 µM
- IC50 (NaV1.8 [2]): > 20 µM

Structure (SMILES): NC1=N[C@H](O)[C@H]2[C@H]3O[C@]4(O)O[C@@H]([C@@H](O)[C@@]2(N1)[C@@H]4O)[C@]3(O)CO [TTX, tetrodotoxin]
- IC50 (NaV1.6): 0.006 µM
- IC50 (NaV1.8 [3]): > 50 µM
- IC50 (NaV1.2): 0.01 µM
- IC50 (NaV1.9): 1 µM
- IC50 (NaV1.1): 0.01 µM
- IC50 (NaV1.3 [4]): 0.015 µM

Structure (SMILES): NS(=O)(=O)c1cc(NC(=O)c2cc(-c3cccc(Cl)c3)oc2C(F)(F)F)ccc1Cl [Compound 20]
- IC50 (NaV1.3 [1]): > 20 µM

Structure (SMILES): Cc1oc(C(C)(C)C)nc1C(=O)Nc1cccc(S(N)(=O)=O)c1 [Compound 25]
- IC50 (NaV 1.7 channel): 10 to 20 µM
- IC50 (NaV1.3 [1]): > 20 µM
- IC50 (NaV1.8 [2]): 10 to 20 µM

Structure (SMILES): CC(C)(C)c1nc(C(=O)Nc2cccc(S(N)(=O)=O)c2)n(Cc2ccccc2)n1 [Compound 26, 5-tert-Butyl-2-benzyl-N-(3-(aminosulfonyl)phenyl)-2H-1,2,4-triazole-3-carboxamide]
- IC50 (NaV1.3 [1]): > 20 µM
- IC50 (NaV1.8 [2]): 10 to 20 µM

Structure (SMILES): Cc1oc(C(C)(C)C)cc1C(=O)Nc1cccc(S(N)(=O)=O)c1 [Compound 3]
- IC50 (NaV 1.7 channel): 10 to 20 µM
- IC50 (NaV1.3 [1]): > 20 µM
- IC50 (NaV1.8 [2]): < 2 µM

Structure (SMILES): Cc1oc(CC(C)C)c(CN2CCOCC2)c1C(=O)Nc1cccc(S(N)(=O)=O)c1 [Compound 7]
- IC50 (NaV 1.7 channel): 2 to 10 µM
- IC50 (NaV1.3 [1]): > 20 µM
- IC50 (NaV1.8 [2]): 10 to 20 µM

Structure (SMILES): Cc1ccc(OCc2occc2C(=O)Nc2cccc(S(N)(=O)=O)c2)cc1 [Compound 10]
- IC50 (NaV 1.7 channel): > 20 µM
- IC50 (NaV1.3 [1]): > 20 µM

Structure (SMILES): Cc1coc(C)c1C(=O)Nc1cccc(S(N)(=O)=O)c1 [Compound 14]
- IC50 (NaV 1.7 channel): > 20 µM
- IC50 (NaV1.3 [1]): > 20 µM
- IC50 (NaV1.8 [2]): > 20 µM

Structure (SMILES): COc1cccc(-c2cc(C(=O)Nc3cccc(S(N)(=O)=O)c3)no2)c1 [Compound 32]
- IC50 (NaV 1.7 channel): > 20 µM

Structure (SMILES): COc1ccc(-c2cc(C(=O)Nc3cccc(S(N)(=O)=O)c3)on2)cc1 [Compound 31]
- IC50 (NaV 1.7 channel): > 20 µM

Structure (SMILES): NS(=O)(=O)c1cccc(NC(=O)c2cccnc2Oc2ccc(Cl)cc2)c1 [Compound 21]
- IC50 (NaV1.3 [1]): > 20 µM
- IC50 (NaV1.8 [2]): > 20 µM

Structure (SMILES): Cc1oc(CC(C)C)c(CN2CCCC2)c1C(=O)Nc1cccc(S(N)(=O)=O)c1 [Compound 11]
- IC50 (NaV 1.7 channel): 2 to 10 µM
- IC50 (NaV1.3 [1]): 10 to 20 µM
- IC50 (NaV1.8 [2]): 10 to 20 µM

Structure (SMILES): C[C@@H](c1ccc(F)cc1)N1CCN(Cc2oc(C(C)(C)C)cc2C(=O)Nc2cccc(S(N)(=O)=O)c2)CC1 [Compound 5]
- IC50 (NaV1.3 [1]): 10 to 20 µM

Structure (SMILES): Cc1nc(C(C)(C)C)sc1C(=O)Nc1cccc(S(N)(=O)=O)c1 [Compound 24]
- IC50 (NaV 1.7 channel): > 20 µM
- IC50 (NaV1.3 [1]): > 20 µM

Structure (SMILES): CC(C)(C)c1cc(C(=O)Nc2cccc(S(N)(=O)=O)c2)c(CN2CCCCC2)o1 [Compound 6]
- IC50 (NaV1.3 [1]): > 20 µM
- IC50 (NaV1.8 [2]): 2 to 10 µM

Structure (SMILES): NS(=O)(=O)c1cccc(NC(=O)c2cc(-c3ccc(Cl)cc3)cs2)c1 [Compound 19]
- IC50 (NaV1.3 [1]): 10 to 20 µM

Structure (SMILES): Cn1nc(C(C)(C)C)nc1C(=O)Nc1cccc(S(N)(=O)=O)c1 [Compound 27]
- IC50 (NaV1.3 [1]): > 20 µM

Structure (SMILES): CCN(CC)Cc1oc(-c2ccccc2)cc1C(=O)Nc1cccc(S(N)(=O)=O)c1 [Compound 9]
- IC50 (NaV 1.7 channel): 2 to 10 µM
- IC50 (NaV1.3 [1]): 2 to 10 µM
- IC50 (NaV1.8 [2]): 2 to 10 µM
